In PubChem BioAssay (NCI):
“And” between values parts separate entries of the source, which are not always exact repeats. Equal entries are not always repeated.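 Five concentrations, 48 hours, 96-well plates. GI50 = concentration required for 50% inhibition of growth. TGI: total growth inhibition.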

Key:
Assay in all cases: inhibition of tumour cell growth, NCI panel, 48 h
[1] = tested on: MDA-MB-231 breast
[2] = tested on: TK-10 renal
[3] = tested on: PC-3 prostate
[4] = tested on: A498 renal
[5] = tested on: KM12 colon
[6] = tested on: BT-549 breast
[7] = tested on: NCI-H226 lung
[8] = tested on: SF-268 CNS
[9] = tested on: OVCAR-5 ovarian
[10] = tested on: HS 578T breast

SMILES	GI50 [1]	TGI [1]	GI50 [2]	TGI [2]	GI50 [3]	TGI [3]	GI50 [4]	TGI [4]	GI50 [5]	TGI [5]	GI50 [6]	TGI [6]	GI50 [7]	TGI [7]	GI50 [8]	TGI [8]	GI50 [9]	TGI [9]	GI50 [10]	TGI [10]
COc1cc(OC)c(C(=O)/C=C/c2cccc(C#N)c2)c(OC)c1	2 µM	8.08 µM	1.63 µM	5.52 µM	1.71 µM	8.26 µM	1.24 µM	3.3 µM	1.64 µM	5.97 µM	0.611 µM	2.5 µM	1.28 µM	4.56 µM	1.69 µM	7.9 µM	2.26 µM	7.95 µM	1.59 µM	44.9 µM
OCCn1cnc2c(SCc3ccccc3)ncnc21	–	> 100 µM	–	> 100 µM	–	> 100 µM	–	> 100 µM	–	> 100 µM	–	> 100 µM	–	> 100 µM	–	> 100 µM	–	> 100 µM	–	> 100 µM
CCc1ccc2c(c1)C(=O)c1c-2n(CCCN=[N+]=[N-])c(=O)c2cc(OC)c(OC)cc12	> 100 µM	> 100 µM	44.2 µM	> 100 µM	> 100 µM	> 100 µM	25.8 µM	84.5 µM	> 100 µM	> 100 µM	76.5 µM	> 100 µM	> 100 µM	> 100 µM	60.7 µM	> 100 µM	> 100 µM	> 100 µM	89.1 µM	> 100 µM
O=c1c(O)c(-c2ccc(O)c(O)c2)oc2cc(O)cc(O)c12	9.36 µM	> 100 µM	49.4 µM	> 100 µM	18.7 µM	> 100 µM	7.11 µM	24.2 µM and > 100 µM	9.4 µM	59.3 µM and > 100 µM	13.3 µM	77.7 µM	16.3 µM	68.5 µM	10.2 µM	75.5 µM and > 100 µM	30.2 µM	> 100 µM	4.12 µM	> 50.7 µM
Cc1cn2c(/C=C3/C(=O)Nc4ccc(O)cc43)c(C)nc2s1	2.82 µM	> 62.4 µM	2.43 µM	26 µM	2.11 µM	37.2 µM	19.1 µM	67.7 µM	1.8 µM	24.3 µM	5.82 µM	57.7 µM	4.91 µM	39.8 µM	3.42 µM	56.8 µM	28.3 µM	> 100 µM	2.68 µM	18.2 µM
COC(=O)c1cc2ccccc2c2c3c(ccc12)OCO3	59.7 µM	> 1000 µM	43.8 µM	325 µM	67.4 µM	> 1000 µM	15.5 µM	129 µM	515 µM	> 1000 µM	47.1 µM	482 µM	26.4 µM	146 µM	50.6 µM	371 µM	223 µM	> 1000 µM	36.4 µM	247 µM
C#CCNCCN1C(=O)c2ccc3c4c(ccc(c24)C1=O)C(=O)N(CCNCC#C)C3=O	5.24 µM	13.6 µM	7.38 µM	23.8 µM	7.09 µM	21.2 µM	7.14 µM	14.1 µM	3.35 µM	11.4 µM	7.27 µM	14.7 µM	2.96 µM	12.2 µM	3.78 µM	24.2 µM	8.63 µM	18.3 µM	8.35 µM	29.2 µM
Cc1ccc(C(=O)NC2CCC2)cc1-c1ccc(C(=O)NCC2CC2)cc1	> 25 µM	> 25 µM	> 25 µM	> 25 µM	> 25 µM	> 25 µM	25 µM	> 25 µM	> 25 µM	> 25 µM	> 25 µM	> 25 µM	> 25 µM	> 25 µM	> 25 µM	> 25 µM	> 25 µM	> 25 µM	> 25 µM	> 25 µM
Nc1ccccc1C#C/C=C\C#Cc1cccc(O)c1	2.29 µM	14.1 µM	8.73 µM	29.7 µM	6.5 µM	42.7 µM	11 µM	35.9 µM	2.61 µM	11.7 µM	7.12 µM	25.8 µM	6.03 µM	20.9 µM	7.93 µM	44.5 µM	7.64 µM	23 µM	3.39 µM	22.8 µM
CC1=C(C(=O)N(C)c2ccc(Cl)c(C(=O)OC(C)C)c2)SCCO1	–	> 100 µM	–	> 100 µM	–	> 100 µM	–	> 100 µM	–	> 100 µM	–	> 100 µM	–	> 100 µM	–	> 100 µM	–	> 100 µM	–	> 100 µM
CC(C)CCNCC(O)Cn1c2ccccc2c2ccccc21 (stereo not drawn)	3.51 µM	14.4 µM	14 µM	27.6 µM	10.6 µM	23 µM	9.52 µM	22.8 µM	3.91 µM	14.4 µM	16.5 µM	31.4 µM	15.7 µM	37.9 µM	12.2 µM	26.4 µM	12.4 µM	25.7 µM	13.8 µM	38.9 µM
CN(C)c1ccc(C(=NO)c2ccc(N(C)C)cc2)cc1	4.85 µM	> 100 µM	7.47 µM	98.6 µM	18.1 µM	> 100 µM	2.57 µM	> 100 µM	1.28 µM	> 100 µM	7.34 µM	> 100 µM	9.43 µM	> 100 µM	4.71 µM	> 100 µM	15.1 µM	> 100 µM	7.39 µM	> 100 µM
O=C1C(SCCO)=C(SCCO)C(=O)N1c1ccc(-c2ccccc2)cc1	13.3 µM	32.7 µM	1.49 µM	3.18 µM	1.07 µM	7.57 µM	18 µM	37.9 µM	7.55 µM	20.8 µM	4.01 µM	8.38 µM	23.1 µM	> 53.4 µM	3.1 µM	7.65 µM	3.61 µM	11 µM	17.2 µM	> 77.9 µM
O=C1NOC(c2ccc(O)cc2)(c2ccc(O)cc2)c2ccccc21	> 100 µM	> 100 µM	> 100 µM	> 100 µM	> 100 µM	> 100 µM	> 100 µM	> 100 µM	> 100 µM	> 100 µM	> 100 µM	> 100 µM	> 100 µM	> 100 µM	> 100 µM	> 100 µM	> 100 µM	> 100 µM	> 100 µM	> 100 µM
Cn1cc(-c2csc(-c3cn(CCCN4CCCCC4)c4ccccc34)n2)c2cccnc21	1.77 µM	3.32 µM	1.6 µM	2.96 µM	1.74 µM	3.3 µM	13.7 µM	28.7 µM	1.72 µM	3.25 µM	1.56 µM	2.94 µM	2.55 µM	7.62 µM	1.72 µM	3.41 µM	1.63 µM	3.13 µM	2.55 µM	6.26 µM
COc1ccc(Cl)c(Nc2nc3ccccc3nc2NS(=O)(=O)c2cccc(NC(=O)C(C)(C)N)c2)c1	14.5 µM and > 10 µM	32.6 µM and > 10 µM	5.68 µM and 4.24 µM	20.1 µM and > 10 µM	3.42 µM and 2.65 µM	17.5 µM and > 10 µM	3.1 µM and 3.23 µM	13.6 µM and > 10 µM	12 µM and > 10 µM	30.9 µM and > 10 µM	4.87 µM and 4.42 µM	18.4 µM and > 10 µM	15.3 µM and > 10 µM	40.2 µM and > 10 µM	10.9 µM and 9.94 µM	25.5 µM and > 10 µM	4.76 µM and > 10 µM	22.5 µM and > 10 µM	2.37 µM and 1.69 µM	15.1 µM and > 10 µM
O=[N+]([O-])c1ccc(N=Nc2ccc(O)c3ccccc23)cc1	1.43 µM	20.8 µM	2.81 µM	> 100 µM	1.67 µM	> 100 µM	3.32 µM	86.8 µM	3.21 µM	> 100 µM	5.07 µM	46.7 µM	26.3 µM	> 100 µM	2.9 µM	> 100 µM	14.4 µM	75.8 µM	2.42 µM	29.9 µM
CCC[CH2][Sn]1([CH2]CCC)[O]C2C(CO)OC(n3ccc(N)nc3=O)C2[O]1 (stereo not drawn)	0.818 µM	2.19 µM	1.15 µM	2.38 µM	1.66 µM	3.26 µM	0.271 µM	1.17 µM	1.68 µM	3.13 µM	1.42 µM	2.73 µM	2.02 µM	4.25 µM	1.08 µM	2.47 µM	1.57 µM	3.03 µM	1.29 µM	4.14 µM
CC(=O)[O][Sn]([CH2]c1ccccc1)([CH2]c1ccccc1)[CH2]c1ccccc1	> 9.02 µM	> 10 µM	> 3.8 µM	> 5.43 µM	> 7.52 µM	> 10 µM	> 4.95 µM	9.94 µM	> 10 µM	> 10 µM	> 10 µM	> 10 µM	> 10 µM	> 10 µM	–	–	> 10 µM	> 10 µM	> 6.39 µM	> 9.44 µM
